Results published in patent publication US20250381110A1, “SKIN CARE COMPOSITION AND METHOD OF USING THE SAME” (THE PROCTER & GAMBLE COMPANY, priority 2024, published 2025).

Test system: p62-dependent mitophagy
Assay: Luciferase-p62 assay (Fluc-p62 clearance) in mouse embryonic fibroblasts
Format: cell-based
Conditions: for Mean Luminescence: Luciferase-p62 assay, mouse embryonic fibroblasts (MEFs), compounds at 10 μM; for % Activity over baseline: percentage of Luciferase-p62 clearance relative to baseline (mean luminescence in the absence of doxycycline induction); for % Activity over baseline / % Activity relative to Rapamycin: MEFs, 10 μM; for % Activity relative to Rapamycin: percentage of activity relative to rapamycin tested in the same experiment at the same concentration
Method in brief: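 MEFs with doxycycline-inducible Fluc-p62; after induction, doxycycline removed and cells treated 48 h with compounds at 10 μM. Fluc-p62 clearance, taken as mitophagy, read by ONE-Glo+Tox luciferase with viability. Vehicle (DMSO) as negative control; activity also expressed relative to rapamycin.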

Structure (SMILES): C[C@]12CC[C@@H]3c4ccc(O)cc4CC[C@H]3[C@@H]1CC[C@@H]2O [Estradiol]
- Mean Luminescence: 768.64
- % Activity over baseline: 52.50%
- % Activity relative to Rapamycin: 94.59%

Structure (SMILES): C[C@]12CC[C@@H]3c4ccc(O)cc4CC[C@H]3[C@@H]1C[C@@H](O)[C@@H]2O [Estriol]
- Mean Luminescence: 784.74
- % Activity over baseline: 51.50%
- % Activity relative to Rapamycin: 92.80%

Structure (SMILES): C[C@]12CC[C@@H]3c4ccc(O)cc4CC[C@H]3[C@@H]1CCC2=O [Estrone]
- Mean Luminescence: 670.65
- % Activity over baseline: 58.55%
- % Activity relative to Rapamycin: 105.50%

Structure (SMILES): C#C[C@]1(O)CC[C@H]2[C@@H]3CCC4=CC(=O)CC[C@]4(C)[C@H]3CC[C@@]21C [Ethisterone]
- Mean Luminescence: 996.32
- % Activity over baseline: 38.43%
- % Activity relative to Rapamycin: 69.24%

Structure (SMILES): CCc1c(Cl)c(O)c(Cl)c(O)c1C(=O)O[C@H]1[C@H](O)[C@H](OC)[C@H](OC/C2=C\C=C\C[C@H](O)/C(C)=C/[C@H](CC)[C@@H](O[C@@H]3OC(C)(C)[C@@H](OC(=O)C(C)C)[C@H](O)[C@@H]3O)/C(C)=C/C(C)=C/C[C@@H]([C@@H](C)O)OC2=O)O[C@@H]1C [Fidaxomicin]
- Mean Luminescence: 262.87
- % Activity over baseline: 83.75%
- % Activity relative to Rapamycin: 150.90%

Structure (SMILES): O=c1[nH]cc(F)c(=O)[nH]1 [Fluorouracil (Adrucil)]
- Mean Luminescence: 848.60
- % Activity over baseline: 47.56%
- % Activity relative to Rapamycin: 85.68%

Structure (SMILES): C=C[C@@]1(C)CC(=O)[C@]2(O)[C@@]3(C)[C@@H](O)CCC(C)(C)[C@@H]3[C@H](O)[C@H](OC(C)=O)[C@@]2(C)O1 [Forskolin]
- Mean Luminescence: 911.32
- % Activity over baseline: 43.68%
- % Activity relative to Rapamycin: 78.70%

Structure (SMILES): CNC[C@H](O)[C@@H](O)[C@H](O)[C@H](O)CO.CNC[C@H](O)[C@@H](O)[C@H](O)[C@H](O)CO.C[C@@H](O[C@H]1OCCN(Cc2nn(P(=O)(O)O)c(=O)[nH]2)[C@H]1c1ccc(F)cc1)c1cc(C(F)(F)F)cc(C(F)(F)F)c1 [Fosaprepitant dimeglumine salt]
- Mean Luminescence: 756.54
- % Activity over baseline: 53.24%
- % Activity relative to Rapamycin: 95.93%

Structure (SMILES): CC1=C2C(=O)O[C@@H](c3ccoc3)[C@]2(C)CCC1 [Fraxinellone]
- Mean Luminescence: 972.50
- % Activity over baseline: 39.90%
- % Activity relative to Rapamycin: 71.89%

Structure (SMILES): O=C(O)c1cc(O)c(O)c(O)c1 [Gallic acid]
- Mean Luminescence: 898.71
- % Activity over baseline: 44.46%
- % Activity relative to Rapamycin: 80.10%

Structure (SMILES): COc1cc2ncnc(Nc3ccc(F)c(Cl)c3)c2cc1OCCCN1CCOCC1 [Gefitinib (ZD1839)]
- Mean Luminescence: 960.31
- % Activity over baseline: 40.65%
- % Activity relative to Rapamycin: 73.25%

Structure (SMILES): C[C@@H]1C(=O)O[C@H]2C[C@@]34[C@H]5C[C@@H](C(C)(C)C)[C@]36[C@@H](OC(=O)[C@@H]6O)O[C@@]4(C(=O)O5)[C@]21O [Ginkgolide A]
- Mean Luminescence: 977.84
- % Activity over baseline: 39.57%
- % Activity relative to Rapamycin: 71.29%

Structure (SMILES): CC(C)=CCC[C@](C)(O[C@@H]1O[C@H](CO)[C@@H](O)[C@H](O)[C@H]1O)[C@H]1CC[C@]2(C)[C@@H]1[C@H](O)C[C@@H]1[C@@]3(C)CC[C@H](O)C(C)(C)[C@@H]3[C@@H](O[C@@H]3O[C@H](CO)[C@@H](O)[C@H](O)[C@H]3O)C[C@]12C [Ginsenoside Rg1]
- Mean Luminescence: 947.81
- % Activity over baseline: 41.42%
- % Activity relative to Rapamycin: 74.64%

Structure (SMILES): Nc1nc2c(ncn2[C@@H]2O[C@H](COP(=O)([O-])[O-])[C@@H](O)[C@H]2O)c(=O)[nH]1.[Na+].[Na+] [Guanosine 5′-monophosphate (sodium salt)]
- Mean Luminescence: 977.65
- % Activity over baseline: 39.58%
- % Activity relative to Rapamycin: 71.31%

Structure (SMILES): COc1cc(CC(=O)O)ccc1O [Homovanillic acid]
- Mean Luminescence: 908.95
- % Activity over baseline: 43.83%
- % Activity relative to Rapamycin: 78.96%

Structure (SMILES): C[C@]12CCC(=O)C=C1CC[C@@H]1[C@@H]2[C@@H](O)C[C@@]2(C)[C@H]1CC[C@]2(O)C(=O)CO [Hydrocortisone]
- Mean Luminescence: 801.04
- % Activity over baseline: 50.50%
- % Activity relative to Rapamycin: 90.98%

Structure (SMILES): CC[C@H]1CN2CC[C@H]1C[C@@H]2[C@@H](O)c1ccnc2ccc(OC)cc12 [Hydroquinidine]
- Mean Luminescence: 958.47
- % Activity over baseline: 40.77%
- % Activity relative to Rapamycin: 73.45%

Structure (SMILES): OCCc1ccc(O)c(O)c1 [Hydroxytyrosol]
- Mean Luminescence: 839.13
- % Activity over baseline: 48.14%
- % Activity relative to Rapamycin: 86.74%

Structure (SMILES): CC1=C[C@]23C(=O)[C@@H](C=C(CO)[C@@H](O)[C@]2(O)[C@H]1O)[C@H]1[C@@H](C[C@H]3C)C1(C)C [Ingenol]
- Mean Luminescence: 930.73
- % Activity over baseline: 42.48%
- % Activity relative to Rapamycin: 76.54%

Structure (SMILES): CC(C)CC(=O)NCC(=O)O [Isovaleroylglycine]
- Mean Luminescence: 776.88
- % Activity over baseline: 51.99%
- % Activity relative to Rapamycin: 93.67%

Structure (SMILES): C=C(CC(=O)O)C(=O)O [Itaconic acid]
- Mean Luminescence: 640.97
- % Activity over baseline: 60.39%
- % Activity relative to Rapamycin: 108.80%

Structure (SMILES): CCC(C)n1ncn(-c2ccc(N3CCN(c4ccc(OCC5COC(Cn6cncn6)(c6ccc(Cl)cc6Cl)O5)cc4)CC3)cc2)c1=O (stereo not drawn) [Itraconazole]
- Mean Luminescence: 450.47
- % Activity over baseline: 72.16%
- % Activity relative to Rapamycin: 130.02%

Structure (SMILES): O=C1C=CC(=O)c2c(O)cccc21 [Juglone]
- Mean Luminescence: 894.51
- % Activity over baseline: 44.72%
- % Activity relative to Rapamycin: 80.57%

Structure (SMILES): CC(C)C(=O)C(=O)O [Ketoisovaleric acid]
- Mean Luminescence: 921.08
- % Activity over baseline: 43.08%
- % Activity relative to Rapamycin: 77.61%

Structure (SMILES): CC[C@H](N)C(=O)O [L(+)-2-Aminobutyric acid]
- Mean Luminescence: 981.68
- % Activity over baseline: 39.33%
- % Activity relative to Rapamycin: 70.87%

Structure (SMILES): CC(=O)O[C@H](CC(=O)O)C[N+](C)(C)C.[Cl-] [L-Acetylcarnitine (hydrochloride)]
- Mean Luminescence: 581.20
- % Activity over baseline: 64.08%
- % Activity relative to Rapamycin: 115.46%

Structure (SMILES): CC(C)=CCC[C@@H](C)[C@H]1CC[C@@]2(C)C3=C(CC[C@]12C)[C@@]1(C)CC[C@H](O)C(C)(C)[C@@H]1CC3 [Lanosterol]
- Mean Luminescence: 957.65
- % Activity over baseline: 40.82%
- % Activity relative to Rapamycin: 73.54%

Structure (SMILES): CS(=O)(=O)CCNCc1ccc(-c2ccc3ncnc(Nc4ccc(OCc5cccc(F)c5)c(Cl)c4)c3c2)o1 [Lapatinib Ditosylate]
- Mean Luminescence: 578.14
- % Activity over baseline: 64.27%
- % Activity relative to Rapamycin: 115.80%

Structure (SMILES): N[C@@H](Cc1cc(I)c(Oc2cc(I)c(O)c(I)c2)c(I)c1)C(=O)O [Levothyroxine sodium]
- Mean Luminescence: 974.14
- % Activity over baseline: 39.80%
- % Activity relative to Rapamycin: 71.71%

Structure (SMILES): CC(=O)CCC(=O)O [Levulinic acid]
- Mean Luminescence: 771.58
- % Activity over baseline: 52.32%
- % Activity relative to Rapamycin: 94.26%

Structure (SMILES): COc1cc2c(cc1OC)[C@@H](Cc1ccc(O)c(Oc3cc4c(cc3OC)CCN(C)[C@@H]4Cc3ccc(O)cc3)c1)N(C)CC2 [Liensinine]
- Mean Luminescence: 923.21
- % Activity over baseline: 42.94%
- % Activity relative to Rapamycin: 77.38%

Structure (SMILES): CC1(C)O[C@H]2CC(=O)OC[C@]23[C@H]2CC[C@@]4(C)[C@H](c5ccoc5)OC(=O)[C@H]5O[C@]54[C@]2(C)C(=O)C[C@@H]13 [Limonin]
- Mean Luminescence: 753.03
- % Activity over baseline: 53.46%
- % Activity relative to Rapamycin: 96.33%

Structure (SMILES): CCOC(=O)O[C@]1(C(=O)OCCl)CC[C@H]2[C@@H]3CCC4=CC(=O)C=C[C@]4(C)[C@H]3[C@@H](O)C[C@@]21C [Loteprednol etabonate]
- Mean Luminescence: 214.82
- % Activity over baseline: 86.72%
- % Activity relative to Rapamycin: 156.26%

Structure (SMILES): C=CCc1ccc(O)c(-c2cc(CC=C)ccc2O)c1 [Magnolol]
- Mean Luminescence: 950.75
- % Activity over baseline: 41.24%
- % Activity relative to Rapamycin: 74.31%

Structure (SMILES): O=C(O)CC(O)C(=O)O (stereo not drawn) [Malic acid]
- Mean Luminescence: 962.28
- % Activity over baseline: 40.53%
- % Activity relative to Rapamycin: 73.03%

Structure (SMILES): O=C(O)CC(=O)O [Malonic acid]
- Mean Luminescence: 865.42
- % Activity over baseline: 46.52%
- % Activity relative to Rapamycin: 83.81%
